Several values for one entry are separate records, joined by “and”; a condition that tells them apart may be missing. Equal values may be shown once. Toxic doses and inconclusive results are not listed. No stated cut-off is given here; in the data, active means T/C of 150% or more; inactive means T/C below 125%.
Test system: L1210 leukemia ip in BDF1 mice, survival T/C
Experiment: NCI In Vivo Anticancer Drug Screen. Data for tumor model L1210 Leukemia (intraperitoneal) in B6D2F1 (BDF1) mice
Conditions: endpoint: mean survival time, higher = longer survival
Summary of the method: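 Transplantable tumor model; survival measured in treated vs vehicle control mice. Value = treated/control.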

[1] = dose: 50.0 mg/kg/injection, schedule: Q01DX009 (ip), vehicle: saline
[2] = dose: 50.0 mg/kg/injection, schedule: Q01DX009 (ip), vehicle: saline with Tween-80
[3] = dose: 100.0 mg/kg/injection, schedule: Q01DX009 (ip), vehicle: saline with Tween-80
[4] = dose: 100.0 mg/kg/injection, schedule: Q01DX001 (ip), vehicle: saline
[5] = dose: 200.0 mg/kg/injection, schedule: Q01DX001 (ip), vehicle: saline
[6] = dose: 400.0 mg/kg/injection, schedule: Q01DX001 (ip), vehicle: saline
[7] = dose: 100.0 mg/kg/injection, schedule: Q04DX002 (ip), vehicle: saline with Tween-80
[8] = dose: 200.0 mg/kg/injection, schedule: Q04DX002 (ip), vehicle: saline with Tween-80
[9] = dose: 400.0 mg/kg/injection, schedule: Q04DX002 (ip), vehicle: saline with Tween-80
[10] = dose: 100.0 mg/kg/injection, schedule: Q01DX009 (ip), vehicle: Klucel (hydroxypropylcellulose) (HPC)
[11] = dose: 200.0 mg/kg/injection, schedule: Q01DX009 (ip), vehicle: Klucel (hydroxypropylcellulose) (HPC)
[12] = dose: 400.0 mg/kg/injection, schedule: Q01DX009 (ip), vehicle: Klucel (hydroxypropylcellulose) (HPC)
[13] = dose: 100.0 mg/kg/injection, schedule: Q04DX002 (ip), vehicle: Klucel (hydroxypropylcellulose) (HPC)
[14] = dose: 200.0 mg/kg/injection, schedule: Q04DX002 (ip), vehicle: Klucel (hydroxypropylcellulose) (HPC)
[15] = dose: 400.0 mg/kg/injection, schedule: Q04DX002 (ip), vehicle: Klucel (hydroxypropylcellulose) (HPC)
[16] = dose: 12.5 mg/kg/injection, schedule: Q01DX009 (ip), vehicle: saline
[17] = dose: 25.0 mg/kg/injection, schedule: Q01DX009 (ip), vehicle: saline

Measured: T/C

CC(C)(CO)NC=O (tested in a mixture with another compound)
inactive: [1] 107 % of control | dose: 100.0 mg/kg/injection, schedule: Q01DX009 (ip), vehicle: saline 113 % of control | dose: 200.0 mg/kg/injection, schedule: Q01DX009 (ip), vehicle: saline 113 % of control

O=S(=O)(CS(=O)(=O)c1ccccc1)c1ccccc1
inactive: dose: 75.0 mg/kg/injection, schedule: Q01DX009 (ip), vehicle: Klucel (hydroxypropylcellulose) (HPC) 102 % of control | dose: 150.0 mg/kg/injection, schedule: Q01DX009 (ip), vehicle: Klucel (hydroxypropylcellulose) (HPC) 98 % of control | dose: 300.0 mg/kg/injection, schedule: Q01DX009 (ip), vehicle: Klucel (hydroxypropylcellulose) (HPC) 95 % of control

Cn1ncc2c(NCc3ccccc3Cl)ncnc21
inactive: dose: 25.0 mg/kg/injection, schedule: Q01DX009 (ip), vehicle: saline with Tween-80 102 % of control | [2] 108 % of control | [3] 124 % of control | dose: 200.0 mg/kg/injection, schedule: Q01DX009 (ip), vehicle: other 93 % of control

CC(=O)OC1CCCCC1C (stereo unspecified)
inactive: [4] 102 % of control | [5] 94 % of control | [6] 91 % of control

Cc1ccc(NC(=O)OCC(F)(F)C(F)(F)C(F)(F)F)c(NC(=O)OCC(F)(F)C(F)(F)C(F)(F)F)c1
inactive: [7] 98 % of control | [8] 98 % of control | [9] 112 % of control

Cc1cc2nc3c(N)ccc(N)c3nc2cc1N
inactive: [7] 97 % of control | [8] 97 % of control | [9] 105 % of control

CCOC(=O)C1=NN(c2ccccc2)C(=O)C1N=Nc1ccc(S(=O)(=O)Nc2ncccn2)cc1 (stereo unspecified)
inactive: [4] 98 % of control | [5] 96 % of control | [6] 101 % of control

N=C(CNC1CC2CCC1C2)SS(=O)(=O)O (stereo unspecified)
inactive: dose: 3.13 mg/kg/injection, schedule: Q01DX009 (ip), vehicle: Klucel (hydroxypropylcellulose) (HPC) 97 % of control | dose: 3.13 mg/kg/injection, schedule: Q04DX002 (ip), vehicle: Klucel (hydroxypropylcellulose) (HPC) 98 % of control | dose: 6.25 mg/kg/injection, schedule: Q01DX009 (ip), vehicle: Klucel (hydroxypropylcellulose) (HPC) 94 % of control | dose: 6.25 mg/kg/injection, schedule: Q04DX002 (ip), vehicle: Klucel (hydroxypropylcellulose) (HPC) 95 % of control | dose: 12.5 mg/kg/injection, schedule: Q01DX009 (ip), vehicle: Klucel (hydroxypropylcellulose) (HPC) 105 % of control | dose: 12.5 mg/kg/injection, schedule: Q04DX002 (ip), vehicle: Klucel (hydroxypropylcellulose) (HPC) 98 % of control and 103 % of control

CC(C)CCNc1ncnc2nc[nH]c12
inactive: dose: 75.0 mg/kg/injection, schedule: Q01DX001 (ip), vehicle: saline 90 % of control | dose: 150.0 mg/kg/injection, schedule: Q01DX001 (ip), vehicle: saline 92 % of control

Cc1cc(C)c(NC(=O)C(Br)C(Br)c2ccccc2)c(C)c1 (stereo unspecified)
inactive: [10] 98 % of control | [11] 98 % of control | [12] 98 % of control

CC(C)N(C(=S)SSC(=S)N(C(C)C)C(C)C)C(C)C
inactive: [2] 97 % of control | [3] 101 % of control | dose: 200.0 mg/kg/injection, schedule: Q01DX009 (ip), vehicle: saline with Tween-80 97 % of control

O=CC(C=O)[N+](=O)[O-]
inactive: [10] 100 % of control | [13] 97 % of control | dose: 100.0 mg/kg/injection, schedule: Q04DX003 (ip), vehicle: Klucel (hydroxypropylcellulose) (HPC) 97 % of control | [11] 105 % of control | [14] 94 % of control | dose: 200.0 mg/kg/injection, schedule: Q04DX003 (ip), vehicle: Klucel (hydroxypropylcellulose) (HPC) 102 % of control | [12] 108 % of control | [15] 105 % of control | dose: 400.0 mg/kg/injection, schedule: Q04DX003 (ip), vehicle: Klucel (hydroxypropylcellulose) (HPC) 102 % of control

COC(=O)/C=C\C(=O)O (tested in a mixture with another compound)
inactive: dose: 15.5 mg/kg/injection, schedule: Q#A X Z (oral), vehicle: carboxymethylcellulose (CMC) 98 % of control | dose: 31.25 mg/kg/injection, schedule: Q#A X Z (ip), vehicle: carboxymethylcellulose (CMC) 101 % of control | dose: 31.5 mg/kg/injection, schedule: Q#A X Z (oral), vehicle: carboxymethylcellulose (CMC) 100 % of control | dose: 63.0 mg/kg/injection, schedule: Q#A X Z (oral), vehicle: carboxymethylcellulose (CMC) 100 % of control | dose: 126.0 mg/kg/injection, schedule: Q#A X Z (oral), vehicle: carboxymethylcellulose (CMC) 100 % of control

COc1ccn(C)c(=O)n1
inactive: [16] 112 % of control | dose: 12.5 mg/kg/injection, schedule: Q04DX003 (ip), vehicle: saline 110 % of control | [17] 93 % of control | dose: 25.0 mg/kg/injection, schedule: Q04DX003 (ip), vehicle: saline 91 % of control | dose: 50.0 mg/kg/injection, schedule: Q04DX003 (ip), vehicle: saline 96 % of control

Cc1ccc(N=Nc2ccc(C)cc2NC(=O)c2cccc3ccccc23)cc1
inactive: [10] 92 % of control | [13] 104 % of control | [11] 100 % of control | [14] 96 % of control | [12] 95 % of control | [15] 93 % of control

CCOC(=O)C(C#N)S(C)(=O)=O (stereo unspecified)
inactive: [4] 89 % of control | [5] 95 % of control

OCCNCc1ccc(O)cc1
inactive: dose: 100.0 mg/kg/injection, schedule: Q01DX009 (ip), vehicle: water 100 % of control | dose: 100.0 mg/kg/injection, schedule: Q04DX003 (ip), vehicle: water 103 % of control | dose: 200.0 mg/kg/injection, schedule: Q01DX009 (ip), vehicle: water 105 % of control | dose: 200.0 mg/kg/injection, schedule: Q04DX003 (ip), vehicle: water 103 % of control | dose: 400.0 mg/kg/injection, schedule: Q01DX009 (ip), vehicle: water 102 % of control | dose: 400.0 mg/kg/injection, schedule: Q04DX003 (ip), vehicle: water 103 % of control

CCCCCCCCCCCCN=C(N)N/C(N)=N/S(=O)(=O)c1ccc(OCCCCC)cc1
inactive: [13] 100 % of control | [14] 95 % of control | [15] 95 % of control

CCN(CC)CCC(=O)Nc1cccc2c1C(=O)c1c(c(O)c3ccccc3c1O)C2=O
inactive: [2] 105 % of control | [3] 91 % of control | dose: 100.0 mg/kg/injection, schedule: Q04DX003 (ip), vehicle: saline with Tween-80 105 % of control | dose: 200.0 mg/kg/injection, schedule: Q04DX003 (ip), vehicle: saline with Tween-80 90 % of control

O=c1cc2oc3c(O)c(O)ccc3c3c4ccccc4c(=O)c(c1)c23
inactive: [16] 92 % of control | [17] 96 % of control | [1] 103 % of control and 91 % of control | dose: 100.0 mg/kg/injection, schedule: Q04DX003 (ip), vehicle: saline 96 % of control | dose: 200.0 mg/kg/injection, schedule: Q04DX003 (ip), vehicle: saline 102 % of control

Source: PubChem BioAssay AID248 (DTP/NCI, 2004)
